Laboratory results from patent publication US12084472B2 (Ardelyx, Inc., priority 2015, dated 2024).

biological target: T1, human TGR5 (Homo sapiens, UniProt Q8TDU6); assay: Cell-based TGR5 assay (cAMP generation, HTRF); settings: HEK293 cells stably transfected with human TGR5; cAMP by HTRF; 30 minutes at 37° C.; read-out: pEC50 Human TGR5 (converted)
T1 construct: expressed in transfected cells; host or cells: HEK293
T1 sequence (Q8TDU6 1-330): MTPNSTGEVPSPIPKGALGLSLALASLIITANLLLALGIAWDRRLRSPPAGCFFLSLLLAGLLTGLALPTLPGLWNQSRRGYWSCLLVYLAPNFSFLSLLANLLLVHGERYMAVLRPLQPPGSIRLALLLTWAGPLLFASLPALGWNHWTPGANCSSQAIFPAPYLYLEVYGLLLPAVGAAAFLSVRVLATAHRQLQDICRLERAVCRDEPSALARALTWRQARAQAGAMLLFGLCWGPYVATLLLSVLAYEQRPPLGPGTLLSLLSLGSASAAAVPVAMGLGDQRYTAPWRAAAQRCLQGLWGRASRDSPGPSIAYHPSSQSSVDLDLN
Procedure, shortened: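 Read-out was HTRF detection of cAMP, converted to concentration via a standard curve and fitted (3-parameter logistic) for pEC50 and maximal response. Agonist stimulation used HEK293 cells stably transfected with human TGR5, incubated 30 min at 37° C in IBMX-containing buffer at 0.05 nM to 10 μM compound.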

Row | Compound | EC50 [nM]
1 | O=C(NCCCCCOc1ccc(Cl)c(COC2(c3cnccc3-c3ccccc3OC3CC3)CC2)c1)N[C@@H](CO)[C@@H](O)[C@H](O)[C@H](O)CO [Compound I-760, 1-(5-(4-chloro-3-((1-(4-(2-cyclopropoxyphenyl)pyridin-3-yl)cyclopropoxy)methyl)phenoxy)pentyl)-3-((2S,3R,4S,5R)-1,3,4,5,6-pentahydroxyhexan-2-yl)urea] | 126 to 1000
2 | O=C(NCCCCc1ccc(Cl)c(CNC2(c3cnccc3-c3ccccc3OC3CC3)CC2)c1)NC[C@H](O)[C@@H](O)[C@H](O)[C@H](O)CO [Compound I-64, 1-(4-[4-chloro-3-[([1-[4-(2-cyclopropoxyphenyl)pyridin-3-yl]cyclopropyl]amino)methyl]phenyl]butyl)-3-[(2S,3R,4R,5R)-2,3,4,5,6-pentahydroxyhexyl]urea] | < 100
3 | O=C(CCC1CN(S(=O)(=O)c2ccc(Cl)c(COC3(c4cnccc4-c4ccccc4OC4CC4)CC3)c2)C1)NC[C@H](O)[C@@H](O)[C@H](O)[C@H](O)CO [Compound I-448, 3-{1-[4-chloro-3-({1-[4-(2-cyclopropoxyphenyl)pyridin-3-yl]cyclopropoxy}methyl)benzenesulfonyl]azetidin-3-yl}-N-[(2S,3R,4R,5R)-2,3,4,5,6-pentahydroxyhexyl]propanamide] | < 100
4 | CCN(CCCCN)S(=O)(=O)c1ccc(Cl)c(COC2(c3cnccc3-c3ccccc3OC3CC3)CC2)c1 [Compound I-463, N-(4-aminobutyl)-4-chloro-3-({1-[4-(2-cyclopropoxyphenyl)pyridin-3-yl]cyclopropoxy}methyl)-N-ethylbenzene-1-sulfonamide] | < 100
5 | CN(CCCCCSc1ccc(Cl)c(COC2(c3cnccc3-c3ccccc3OC3CC3)CC2)c1)C(=O)[C@@H](O)[C@@H](O)[C@H](O)[C@@H](O)CO [Compound I-509, (2S,3S,4R,5S)-N-(5-{[4-chloro-3-({1-[4-(2-cyclopropoxyphenyl)pyridin-3-yl]cyclopropoxy}methyl)phenyl]sulfanyl}pentyl)-2,3,4,5,6-pentahydroxy-N-methylhexanamide] | < 100
6 | CCC(=O)N(CCCCc1cc(Cl)c(COC2(c3cnccc3-c3ccccc3OC3CC3)CC2)cc1Cl)C[C@H](O)[C@@H](O)[C@H](O)[C@H](O)CO [Compound I-73, N-{4-[2,5-dichloro-4-({1-[4-(2-cyclopropoxyphenyl)pyridin-3-yl]cyclopropoxy}methyl)phenyl]butyl}-N-[(2S,3R,4R,5R)-2,3,4,5,6-pentahydroxyhexyl]propanamide] | < 100
7 | CS(=O)(=O)NCCCCN(CCCSc1ccc(Cl)c(COC2(c3cnccc3-c3ccccc3OC3CC3)CC2)c1)C(=O)[C@@H](O)[C@@H](O)[C@H](O)[C@@H](O)CO [Compound I-580, (2S,3S,4R,5S)-N-(3-{[4-chloro-3-({1-[4-(2-cyclopropoxyphenyl)pyridin-3-yl]cyclopropoxy}methyl)phenyl]sulfanyl}propyl)-2,3,4,5,6-pentahydroxy-N-(4-methanesulfonamidobutyl) hexanamide] | 126 to 1000
8 | CN(CCCCNC(=O)N[C@@H](CO)[C@@H](O)[C@H](O)[C@H](O)CO)S(=O)(=O)c1cc(CNC2(c3cnccc3-c3ccccc3OC3CC3)CC2)c(Cl)cc1Cl [Compound I-476, 1-(4-{N-methyl2,4-dichloro-5-[({1-[4-(2-cyclopropoxyphenyl)pyridin-3-yl]cyclopropyl}amino)methyl]benzenesulfonamido}butyl)-3-[(2S,3R,4S,5R)-1,3,4,5,6-pentahydroxyhexan-2-yl]urea] | 126 to 1000
9 | O=C(CCCSc1ccc(Cl)c(COC2(c3cnccc3-c3ccccc3OC3CC3)CC2)c1)N(CCO)C[C@H](O)[C@@H](O)[C@H](O)[C@H](O)CO [Compound I-660, 4-{[4-chloro-3-({1-[4-(2-cyclopropoxyphenyl)pyridin-3-yl]cyclopropoxy}methyl)phenyl]sulfanyl}-N-(2-hydroxyethyl)-N-[(2S,3R,4R,5R)-2,3,4,5,6-pentahydroxyhexyl]butanamide] | 126 to 1000
10 | Cc1ccc(CCCCNC(=O)NC[C@H](O)[C@@H](O)[C@H](O)[C@H](O)CO)cc1COC1(c2cnccc2-c2ccccc2OC2CC2)CC1 [Compound I-239, 1-{4-[3-({1-[4-(2-cyclopropoxyphenyl)pyridin-3-yl]cyclopropoxy}methyl)-4-methylphenyl]butyl}-3-[(2S,3R,4R,5R)-2,3,4,5,6-pentahydroxyhexyl]urea] | 126 to 1000
11 | O=C([C@@H](O)[C@@H](O)[C@H](O)[C@@H](O)CO)N(CCCSc1ccc(Cl)c(COC2(c3cnccc3-c3ccccc3OC3CC3)CC2)c1)CCN1CCS(=O)(=O)CC1 [Compound I-521, (2S,3S,4R,5S)-N-(3-{[4-chloro-3-({1-[4-(2-cyclopropoxyphenyl)pyridin-3-yl]cyclopropoxy}methyl)phenyl]sulfanyl}propyl)-N-[2-(1,1-dioxo-1λ^6,4-thiomorpholin-4-yl)ethyl]-2,3,4,5,6-pentahydroxyhexanamide] | 126 to 1000
12 | Cc1ccc(C(C)CCCN(CCS(C)(=O)=O)C(=O)[C@@H](O)[C@@H](O)[C@H](O)[C@@H](O)CO)cc1CNC1(c2cnccc2-c2ccccc2OC2CC2)CC1 (stereo partly drawn) [Compound I-305, (2S,3S,4R,5S)-N-(4-{3-[({1-[4-(2-cyclopropoxyphenyl)pyridin-3-yl]cyclopropyl}amino)methyl]-4-methylphenyl}pentyl)-2,3,4,5,6-pentahydroxy-N-(2-methanesulfonylethyl) hexanamide] | < 100
13 | O=C(O)CCCCc1cc(Cl)c(CNC2(c3cnccc3-c3ccccc3OC3CC3)CC2)cc1Cl [Compound I-61, 5-[2,5-dichloro-4-[([1-[4-(2-cyclopropoxyphenyl)pyridin-3-yl]cyclopropyl]amino)methyl]phenyl]pentanoic acid] | 126 to 1000
14 | CC(CCCN(CCN1CCS(=O)(=O)CC1)C(=O)[C@@H](O)[C@@H](O)[C@H](O)[C@@H](O)CO)c1ccc(Cl)c(CNC2(c3cnccc3-c3ccccc3OC3CC3)CC2)c1 (stereo partly drawn) [Compound I-298, (2S,3S,4R,5S)-N-(4-{4-chloro-3-[({1-[4-(2-cyclopropoxyphenyl)pyridin-3-yl]cyclopropyl}amino)methyl]phenyl}pentyl)-N-[2-(1,1-dioxo-1λ^6,4-thiomorpholin-4-yl)ethyl]-2,3,4,5,6-pentahydroxyhexanamide] | < 100
15 | CCN(C[C@H](O)[C@@H](O)[C@H](O)[C@H](O)CO)C(=O)CCCCc1cc(Cl)c(COC2(c3cnccc3-c3ccccc3OC3CC3)CC2)cc1Cl [Compound I-108, 5-[2,5-dichloro-4-({1-[4-(2-cyclopropoxyphenyl)pyridin-3-yl]cyclopropoxy}methyl)phenyl]-N-ethyl-N-[(2S,3R,4R,5R)-2,3,4,5,6-pentahydroxyhexyl]pentanamide] | < 100
16 | FC(F)(F)Oc1ccccc1-c1ccncc1C1(NCc2cc(Cl)ccc2Cl)CC1 [Compound I-11] | 126 to 1000
17 | Cc1cc(COC2(c3cnccc3-c3ccccc3OC3CC3)CC2)c(Cl)cc1CCCCN(C)C(=O)[C@@H](O)[C@@H](O)[C@H](O)[C@@H](O)CO [Compound I-132, (2S,3S,4R,5S)-N-{4-[5-chloro-4-({1-[4-(2-cyclopropoxyphenyl)pyridin-3-yl]cyclopropoxy}methyl)-2-methylphenyl]butyl}-2,3,4,5,6-pentahydroxy-N-methylhexanamide] | < 100
18 | CS(=O)(=O)NCCCN(CCCCSc1ccc(Cl)c(COC2(c3cnccc3-c3ccccc3OC3CC3)CC2)c1)C(=O)[C@@H](O)[C@@H](O)[C@H](O)[C@@H](O)CO [Compound I-577, (2S,3S,4R,5S)-N-(4-{[4-chloro-3-({1-[4-(2-cyclopropoxyphenyl)pyridin-3-yl]cyclopropoxy}methyl)phenyl]sulfanyl}butyl)-2,3,4,5,6-pentahydroxy-N-(3-methanesulfonamidopropyl) hexanamide] | < 100
19 | CC(CCCCNC(=O)[C@@H](O)[C@@H](O)[C@H](O)[C@@H](O)CO)c1ccc(Cl)c(CNC2(c3cnccc3-c3ccccc3OC3CC3)CC2)c1 (stereo partly drawn) [Compound I-279, (2S,3S,4R,5S)-N-(5-{4-chloro-3-[({1-[4-(2-cyclopropoxyphenyl)pyridin-3-yl]cyclopropyl}amino)methyl]phenyl}hexyl)-2,3,4,5,6-pentahydroxyhexanamide] | < 100
20 | CN(CCCCNC(=O)N[C@H](CO)[C@@H](O)[C@H](O)[C@H](O)CO)S(=O)(=O)c1ccc(Cl)c(COC2(c3cnccc3-c3ccccc3OC3CC3)CC2)c1 [Compound I-778] | < 100
21 | Cc1ccccc1-c1ccncc1C1(OCc2cc(Cl)ccc2Cl)CC1 [Compound I-773, 3-(1-((2,5-dichlorobenzyl)oxy)cyclopropyl)-4-(o-tolyl)pyridine] | 126 to 1000
22 | CCN(CCCCc1cc(Cl)c(COC2(c3cnccc3-c3ccccc3OC3CC3)CC2)cc1C)C(=O)NC[C@H](O)[C@@H](O)[C@H](O)[C@H](O)CO [Compound I-96, 1-(4-(5-chloro-4-((1-(4-(2-cyclopropoxyphenyl)pyridin-3-yl)cyclopropoxy)methyl)-2-methylphenyl)butyl)-1-ethyl-3-((2S,3R,4R,5R)-2,3,4,5,6-pentahydroxyhexyl)urea] | < 100
23 | Cc1ccc([C@@H](C)CCCC(=O)N(C)C[C@H](O)[C@@H](O)[C@H](O)[C@H](O)CO)cc1CNC1(c2cnccc2-c2ccccc2OC2CC2)CC1 (single isomer, unassigned) [Compound I-350] | < 100
